Patent US11166965B2, “Compositions for use in stimulating bone growth” (Société des Produits Nestlé S.A., priority 2013, dated 2021)

Tested on: primary osteoblasts
Experiment: Alkaline phosphatase (ALP) activity of osteoblasts
Assay type: cell-based, Wistar rats
Conditions: day 15 of treatment; 10^-9 M 1,25(OH)2D3, 1 μM OLP, 1 μM HTy; vs negative control (C-); FIGS. 3 to 6
Experimental: Primary osteoblasts were isolated from the calvaria of newborn Wistar rats by enzymatic digestion as described by Declercq et al. in 2004. During all experiments, cells were maintained in α-minimal essential medium with 10% heat-inactivated fetal bovine serum and 1% penicillin/streptomycin under conditions of 5% CO2 and 37° C. Cells were seeded on Coll-1-coated 96-well plates at a density of 3500 cells/well or in 24-well plates at a density of 3×10^4 cells/well and cultured for 2 days in o-MEM to reach confluence. Cells were then exposed to different conditions: minimal medium (C−), minimal medium containing 50 μg/ml ascorbic acid, 5 mM ß-glycerophosphate (C+; optimized medium), and minimal medium supplemented with 1 μM Oleuropein ([…]) or/and 10^−9 M 1,25 dihydroxyvitamin D3 (1,25(OH)2D3). OLP and HTy were dissolved in dimethylsulfoxide (DMSO) and 1,25(OH)2D3 was dissolved in ethanol. The final concentrations of DMSO and ethanol in the medium were 0.1% each. The medium was changed every 2 days.
Enzymatic activity of Alkaline Phosphatase (ALP) was measured kinetically on Treatment Days 0, 5, 9, 12 and 15. Osteoblasts were rinsed twice with PBS before being frozen on dry ice. […] Absorbance was measured at 405 nm and 30° C., and every 2 min 30 s for 30 min using a VarioSklan Flash microplate reader. ALP activity was expressed as micromoles of p-NPP per hour per milligram of protein. […]

## C=C1/C(=C\C=C2/CCC[C@]3(C)[C@@H]([C@H](C)CCCC(C)(C)O)CC[C@@H]23)C[C@@H](O)C[C@@H]1O [Vitamin D3, 1,25 dihydroxyvitamin D3]
  AP (ALP) activity / osteoblast activity: small but statistically significant increase
